According to US12723063B2, “GIPR-agonist compounds” (Eli Lilly and Company, priority 2019, dated 2026):
*1 amine or outer side, *2 acyl side, *3 side chain or, on linkers, in order; H or OH if unused. Where a SMILES comes first, the peptide text is derived from it. Side-chain parts run from the residue outwards. [ ]: non-standard residue; d: D form. The star is where a group is joined. C20 diacid = O=C(O)CCCCCCCCCCCCCCCCCCC(=O)*; C18 diacid = O=C(O)CCCCCCCCCCCCCCCCC(=O)*; γGlu = O=C(O)[C@H](CCC(=O)[*:2])N[*:1]; 4Pal = N[C@@H](Cc1ccncc1)C(=O)O; αMeL = CC(C)C[C@](C)(N)C(=O)O; Orn = NCCC[C@H](N)C(=O)O; AEEA = NCCOCCOCC(=O)O; Aib = CC(C)(N)C(=O)O

What was measured:
[1] = molecular target: T1, human GLP-1 receptor (GLP-1R) (Homo sapiens, UniProt P43220); experiment: cAMP functional assay (HTRF) in HEK293 cells in presence of 0.1% casein; type: cell-based; details: HEK293 cells expressing human GLP-1R, geometric mean, read-out: hGLP1R cAMP Rel EC50 nM (SEM, n)
T1 construct: expressed in transfected cells; host or cells: HEK293

[2] = molecular target: T2, human glucagon receptor (GcgR) (Homo sapiens, UniProt P47871); experiment: as above; type: cell-based; details: HEK293 cells expressing human GcgR, geometric mean, read-out: hGcgR cAMP Rel EC50 nM (SEM, n)
T2 construct: expressed in transfected cells; host or cells: HEK293

human GcgR = molecular target: T3, human GcgR (Homo sapiens, UniProt P47871); experiment: [125I]-Glucagon binding, SPA with WGA beads, 0.1% bacitracin; details: geometric mean, read-out: hGcgR Ki
T3 construct: expressed in transfected cells; crude membranes
How it was run: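 SPA competition binding with WGA beads on crude membranes from HEK293 cells stably expressing hGcgR. Buffer: 25 mM HEPES pH 7.4, 2.5 mM CaCl2, 1 mM MgCl2, 0.1% bacitracin, 0.003% Tween-20; 10-point 3-fold dilutions, NSB with 1 μM Gcg.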

T2 sequence (P47871 26-477): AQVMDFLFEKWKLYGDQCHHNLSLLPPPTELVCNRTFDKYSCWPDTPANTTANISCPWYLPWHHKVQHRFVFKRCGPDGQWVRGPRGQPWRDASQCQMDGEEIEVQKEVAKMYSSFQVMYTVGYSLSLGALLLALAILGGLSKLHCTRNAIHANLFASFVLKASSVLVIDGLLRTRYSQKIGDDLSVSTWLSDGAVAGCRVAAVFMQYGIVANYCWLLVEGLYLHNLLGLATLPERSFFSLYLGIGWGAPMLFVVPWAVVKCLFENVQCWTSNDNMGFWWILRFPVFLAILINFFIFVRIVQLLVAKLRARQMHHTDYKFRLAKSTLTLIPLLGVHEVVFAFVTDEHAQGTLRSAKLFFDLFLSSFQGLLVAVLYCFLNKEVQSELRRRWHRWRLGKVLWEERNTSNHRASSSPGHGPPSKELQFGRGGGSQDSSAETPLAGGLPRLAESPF
T3 sequence (P47871 26-477): as above
T1 sequence (P43220 24-463): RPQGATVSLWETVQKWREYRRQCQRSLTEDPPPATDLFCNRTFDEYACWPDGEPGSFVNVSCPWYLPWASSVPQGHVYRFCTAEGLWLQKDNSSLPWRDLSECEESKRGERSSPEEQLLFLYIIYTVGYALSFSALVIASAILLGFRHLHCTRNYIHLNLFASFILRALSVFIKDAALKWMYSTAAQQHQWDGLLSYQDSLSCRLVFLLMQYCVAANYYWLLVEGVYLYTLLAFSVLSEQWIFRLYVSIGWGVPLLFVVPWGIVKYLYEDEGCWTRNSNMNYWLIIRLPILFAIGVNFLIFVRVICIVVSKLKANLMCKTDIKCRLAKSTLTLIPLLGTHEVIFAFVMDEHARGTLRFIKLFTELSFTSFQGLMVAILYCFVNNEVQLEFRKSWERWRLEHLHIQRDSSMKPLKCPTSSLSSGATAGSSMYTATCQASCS

CC[C@H](C)[C@H](NC(=O)[C@H](Cc1ccccc1)NC(=O)[C@@H](NC(=O)CNC(=O)[C@H](CCC(=O)O)NC(=O)C(C)(C)NC(=O)[C@@H](N)Cc1ccc(O)cc1)[C@@H](C)O)C(=O)N[C@@H](CO)C(=O)N[C@@H](CC(=O)O)C(=O)N[C@@H](Cc1ccc(O)cc1)C(=O)N[C@@H](CO)C(=O)N[C@H](C(=O)N[C@@](C)(CC(C)C)C(=O)N[C@@H](CC(C)C)C(=O)N[C@@H](CC(=O)O)C(=O)N[C@@H](CCC(=O)O)C(=O)N[C@@H](CCCCNC(=O)COCCOCCNC(=O)COCCOCCNC(=O)CC[C@H](NC(=O)CCCCCCCCCCCCCCCCCCC(=O)O)C(=O)O)C(=O)N[C@@H](Cc1c[nH]cn1)C(=O)N[C@@H](CCC(N)=O)C(=O)NC(C)(C)C(=O)N[C@@H](CC(=O)O)C(=O)N[C@@H](Cc1ccccc1)C(=O)N[C@H](C(=O)N[C@@H](CCC(=O)O)C(=O)N[C@@H](Cc1ccncc1)C(=O)N[C@@H](CC(C)C)C(=O)N[C@@H](CC(C)C)C(=O)N[C@@H](C)C(=O)N[C@@H](C)C(=O)NCC(=O)N1CCC[C@H]1C(=O)N[C@@H](CO)C(=O)N[C@@H](CO)C(=O)NCC(=O)N[C@@H](C)C(=O)N1CCC[C@H]1C(=O)N1CCC[C@H]1C(=O)N1CCC[C@H]1C(=O)N[C@@H](CO)C(N)=O)C(C)C)[C@@H](C)CC [Example 85]
EC50 [1]: > 5000 nM | EC50 [2]: > 5000 nM | Ki (human GcgR): 0.8 µM

CC[C@H](C)[C@H](NC(=O)[C@H](CO)NC(=O)[C@H](Cc1ccc(O)cc1)NC(=O)[C@H](CC(=O)O)NC(=O)[C@H](CO)NC(=O)[C@@H](NC(=O)[C@H](Cc1ccccc1)NC(=O)[C@@H](NC(=O)CNC(=O)[C@H](CCC(=O)O)NC(=O)[C@@H](C)NC(=O)[C@@H](N)Cc1ccc(O)cc1)[C@@H](C)O)[C@@H](C)CC)C(=O)N[C@@H](CC(C)C)C(=O)N[C@@H](CC(C)C)C(=O)N[C@@H](CC(=O)O)C(=O)N[C@@H](CCCCN)C(=O)N[C@@H](CCCCNC(=O)COCCOCCNC(=O)COCCOCCNC(=O)CC[C@H](NC(=O)CCCCCCCCCCCCCCCCCCC(=O)O)C(=O)O)C(=O)N[C@@H](Cc1c[nH]cn1)C(=O)N[C@@H](CCC(N)=O)C(=O)N[C@@H](CCC(N)=O)C(=O)N[C@@H](CCC(=O)O)C(=O)N[C@@H](Cc1ccccc1)C(=O)N[C@H](C(=O)N[C@@H](CC(N)=O)C(=O)N[C@@H](Cc1c[nH]c2ccccc12)C(=O)N[C@@H](CC(C)C)C(=O)N[C@@H](CC(C)C)C(=O)N[C@@H](C)C(=O)N[C@@H](CCC(N)=O)C(=O)NCC(=O)N1CCC[C@H]1C(=O)N[C@@H](CO)C(=O)N[C@@H](CO)C(=O)NCC(=O)N[C@@H](C)C(=O)N1CCC[C@H]1C(=O)N1CCC[C@H]1C(=O)N1CCC[C@H]1C(=O)N[C@@H](CO)C(N)=O)C(C)C [Example 13] (H-Y[dA]EGTFISDYSILLDKK([AEEA-AEEA-γGlu-C20 diacid])HQQEFVNWLLAQGPSSGAPPPS-NH2)
EC50 [1]: > 100 nM | EC50 [2]: > 5000 nM | Ki (human GcgR): > 0.23 µM

CC[C@H](C)[C@H](NC(=O)[C@H](CCCN)NC(=O)[C@H](CC(=O)O)NC(=O)[C@H](CC(C)C)NC(=O)[C@](C)(CC(C)C)NC(=O)[C@@H](NC(=O)[C@H](CO)NC(=O)[C@H](Cc1ccc(O)cc1)NC(=O)[C@H](CC(=O)O)NC(=O)[C@H](CO)NC(=O)[C@@H](NC(=O)[C@H](Cc1ccccc1)NC(=O)[C@@H](NC(=O)CNC(=O)[C@H](CCC(=O)O)NC(=O)C(C)(C)NC(=O)[C@@H](N)Cc1ccc(O)cc1)[C@@H](C)O)[C@@H](C)CC)[C@@H](C)CC)C(=O)N[C@@H](Cc1c[nH]cn1)C(=O)N[C@@H](CCC(N)=O)C(=O)NC(C)(C)C(=O)N[C@@H](CCC(=O)O)C(=O)N[C@@H](Cc1ccccc1)C(=O)N[C@H](C(=O)N[C@@H](CCC(=O)O)C(=O)N[C@@H](Cc1ccc(O)cc1)C(=O)N[C@@H](CCCCNC(=O)COCCOCCNC(=O)COCCOCCNC(=O)CC[C@H](NC(=O)CCCCCCCCCCCCCCCCCCC(=O)O)C(=O)O)C(=O)N[C@@H](CC(C)C)C(=O)N[C@@H](CCC(=O)O)C(=O)N[C@H](C(=O)NCC(=O)N1CCC[C@H]1C(=O)N[C@@H](CO)C(=O)N[C@@H](CO)C(=O)NCC(=O)N[C@@H](C)C(=O)N1CCC[C@H]1C(=O)N1CCC[C@H]1C(=O)N1CCC[C@H]1C(=O)N[C@@H](CO)C(N)=O)[C@@H](C)O)C(C)C [Example 105] (H-Y[Aib]EGTFISDYSI[αMeL]LD[Orn]IHQ[Aib]EFVEYK([AEEA-AEEA-γGlu-C20 diacid])LETGPSSGAPPPS-NH2)
EC50 [1]: > 5000 nM | EC50 [2]: > 5000 nM | Ki (human GcgR): > 0.96 µM

CC[C@H](C)[C@H](NC(=O)[C@H](CCCN)NC(=O)[C@H](CC(=O)O)NC(=O)[C@H](CC(C)C)NC(=O)[C@](C)(CC(C)C)NC(=O)[C@@H](NC(=O)[C@H](CO)NC(=O)[C@H](Cc1ccc(O)cc1)NC(=O)[C@H](CC(=O)O)NC(=O)[C@H](CO)NC(=O)[C@@H](NC(=O)[C@H](Cc1ccccc1)NC(=O)[C@@H](NC(=O)CNC(=O)[C@H](CCC(=O)O)NC(=O)C(C)(C)NC(=O)[C@@H](N)Cc1ccc(O)cc1)[C@@H](C)O)[C@@H](C)CC)[C@@H](C)CC)C(=O)N[C@@H](Cc1c[nH]cn1)C(=O)N[C@@H](CCC(N)=O)C(=O)NC(C)(C)C(=O)N[C@@H](CC(=O)O)C(=O)N[C@@H](Cc1ccccc1)C(=O)N[C@H](C(=O)N[C@@H](CCC(=O)O)C(=O)N[C@@H](Cc1ccc(O)cc1)C(=O)N[C@@H](CCCCNC(=O)COCCOCCNC(=O)COCCOCCNC(=O)CC[C@H](NC(=O)CCCCCCCCCCCCCCCCC(=O)O)C(=O)O)C(=O)N[C@@H](CC(C)C)C(=O)N[C@@H](CCC(=O)O)C(=O)NCC(=O)NCC(=O)N1CCC[C@H]1C(=O)N[C@@H](CO)C(=O)N[C@@H](CO)C(=O)NCC(=O)N[C@@H](C)C(=O)N1CCC[C@H]1C(=O)N1CCC[C@H]1C(=O)N1CCC[C@H]1C(=O)N[C@@H](CO)C(N)=O)C(C)C [Example 103] (H-Y[Aib]EGTFISDYSI[αMeL]LD[Orn]IHQ[Aib]DFVEYK([AEEA-AEEA-γGlu-C18 diacid])LEGGPSSGAPPPS-NH2)
EC50 [1]: > 5000 nM | EC50 [2]: > 5000 nM | Ki (human GcgR): > 0.96 µM

CC[C@H](C)[C@H](NC(=O)[C@H](CCCCN)NC(=O)[C@H](CC(=O)O)NC(=O)[C@H](CC(C)C)NC(=O)[C@](C)(CC(C)C)NC(=O)[C@@H](NC(=O)[C@H](CO)NC(=O)[C@H](Cc1ccc(O)cc1)NC(=O)[C@H](CC(=O)O)NC(=O)[C@H](CO)NC(=O)[C@@H](NC(=O)[C@H](Cc1ccccc1)NC(=O)[C@@H](NC(=O)CNC(=O)[C@H](CCC(=O)O)NC(=O)C(C)(C)NC(=O)[C@@H](N)Cc1ccc(O)cc1)[C@@H](C)O)[C@@H](C)CC)[C@@H](C)CC)C(=O)N[C@@H](Cc1c[nH]cn1)C(=O)N[C@@H](CCC(N)=O)C(=O)NC(C)(C)C(=O)N[C@@H](CC(=O)O)C(=O)N[C@@H](Cc1ccccc1)C(=O)N[C@H](C(=O)N[C@@H](CCC(=O)O)C(=O)N[C@@H](Cc1ccc(O)cc1)C(=O)N[C@@H](CCCCNC(=O)COCCOCCNC(=O)COCCOCCNC(=O)CC[C@H](NC(=O)CCCCCCCCCCCCCCCCCCC(=O)O)C(=O)O)C(=O)N[C@@H](CC(C)C)C(=O)N[C@@H](CCC(=O)O)C(=O)N[C@@H](C)C(=O)NCC(=O)N1CCC[C@H]1C(=O)N[C@@H](CO)C(=O)N[C@@H](CO)C(=O)NCC(=O)N[C@@H](C)C(=O)N1CCC[C@H]1C(=O)N1CCC[C@H]1C(=O)N1CCC[C@H]1C(=O)N[C@@H](CO)C(N)=O)C(C)C [Example 117] (H-Y[Aib]EGTFISDYSI[αMeL]LDKIHQ[Aib]DFVEYK([AEEA-AEEA-γGlu-C20 diacid])LEAGPSSGAPPPS-NH2)
EC50 [1]: > 5000 nM | EC50 [2]: > 5000 nM | Ki (human GcgR): 0.685 µM

CC[C@H](C)[C@H](NC(=O)[C@H](Cc1ccccc1)NC(=O)[C@@H](NC(=O)CNC(=O)[C@H](CCC(=O)O)NC(=O)C(C)(C)NC(=O)[C@@H](N)Cc1ccc(O)cc1)[C@@H](C)O)C(=O)N[C@@H](CO)C(=O)N[C@@H](CC(=O)O)C(=O)N[C@@H](Cc1ccc(O)cc1)C(=O)N[C@@H](CO)C(=O)N[C@H](C(=O)N[C@@](C)(CC(C)C)C(=O)N[C@@H](CC(C)C)C(=O)N[C@@H](CC(=O)O)C(=O)N[C@@H](CCCN)C(=O)N[C@@H](CCCCNC(=O)COCCOCCNC(=O)COCCOCCNC(=O)CC[C@H](NC(=O)CCCCCCCCCCCCCCCCCCC(=O)O)C(=O)O)C(=O)N[C@@H](Cc1c[nH]cn1)C(=O)N[C@@H](CCC(N)=O)C(=O)NC(C)(C)C(=O)N[C@@H](CC(=O)O)C(=O)N[C@@H](Cc1ccccc1)C(=O)N[C@H](C(=O)N[C@@H](CCC(=O)O)C(=O)N[C@@H](Cc1ccncc1)C(=O)N[C@@H](CC(C)C)C(=O)N[C@@H](CC(C)C)C(=O)N[C@@H](CCC(=O)O)C(=O)NCC(=O)NCC(=O)N1CCC[C@H]1C(=O)N[C@@H](CO)C(=O)N[C@@H](CO)C(=O)NCC(=O)N[C@@H](C)C(=O)N1CCC[C@H]1C(=O)N1CCC[C@H]1C(=O)N1CCC[C@H]1C(=O)N[C@@H](CO)C(N)=O)C(C)C)[C@@H](C)CC [Example 82] (H-Y[Aib]EGTFISDYSI[αMeL]LD[Orn]K([AEEA-AEEA-γGlu-C20 diacid])HQ[Aib]DFVE[4Pal]LLEGGPSSGAPPPS-NH2)
EC50 [1]: > 5000 nM | EC50 [2]: 3790 nM | Ki (human GcgR): 0.305 µM
